In series [1] the target is T1, PI3Kβ (Homo sapiens, UniProt P42338).
T1 construct: purchased JenaBioscience PR-344
In words: ADP-Glo luminescent lipid kinase assay, PI3Kβ. The settings on record: recombinant enzyme 30 ng, 10 μM ATP, 1 h, room temperature; standard error (SE). It counts as biochemical. As for the experimental part:
(§1) All the synthesized compounds were then tested in vitro for their ability to inhibit the kinase activity of the PI3Kα, PI3Kβ, PI3Kγ, and PI3Kδ isoforms in a luminescent kinase assay (ADP-GloTM kinase assay) using purified, recombinant human enzymes and ATP. IC50 values were subsequently determined.
(§2) To evaluate the ability of each compound of formula (9a–h) to inhibit the lipid kinase activity of each PI3K isoform, 30 ng of PI3Kα, β, γ, and δ recombinant protein (purchased from JenaBioscience—Jena, Germany; PI3Kα #PR-335, PI3Kβ #PR-344, PI3Kγ #PR-343, PI3Kδ #PR-345) were incubated with at least five different concentrations (from 0.016 to 10 µM) of the compounds (9a–h). The phosphorylation reaction was then started by adding 10 μM of ATP, and 10 µg of lipid micelles containing the appropriate substrate phosphatidylinositol and the phosphatidylserine.
(§3) After 30 min of incubation (1 h for PI3Kβ recombinant protein) at room temperature, the reaction was stopped, and the amount of ADP metabolite was measured with a luminescent kinase assay, ADP-GloTM Kinase Assay (purchased from Promega—USA #V9101). The luminescent signal positively correlated with the formed ADP and, therefore, with the kinase activity. The percentage of kinase activity was calculated over the control samples, containing only dimethyl sulfoxide (DMSO). To derive the IC50 values for each assayed compound (9a–h), all data were plotted on a dose response curve (Graph Pad Software) and the IC50 was calculated by using the nonlinear regression fit (equation (log agonist) vs. response—Sigmoidal dose response). The IC50 was representative of two different experiments performed in triplicate.
In general terms: ADP-Glo turns the ADP formed in a reaction into a luminescent signal.

Series [2] concerns the target T2, PI3Kα (Homo sapiens, UniProt P42336).
T2 construct: purchased JenaBioscience PR-335
Briefly: ADP-Glo luminescent lipid kinase assay, PI3Kα. The class given is biochemical. As to conditions: recombinant enzyme 30 ng, 10 μM ATP, 30 min, room temperature; standard error (SE). As for the experimental part:
as §1, §2, §3

Series [3] has as its target T3, PI3Kδ (Homo sapiens, UniProt O00329).
T3 construct: purchased JenaBioscience PR-345
In words: ADP-Glo luminescent lipid kinase assay, PI3Kδ. The class given is biochemical. As to conditions: recombinant enzyme 30 ng, 10 μM ATP, 30 min, room temperature; standard error (SE). As for the experimental part: as §1, §2, §3

The target of series [4] is T4, PI3Kγ (Homo sapiens, UniProt P48736).
T4 construct: purchased JenaBioscience PR-343
In words: ADP-Glo luminescent lipid kinase assay, PI3Kγ. It counts as biochemical. The settings on record: recombinant enzyme 30 ng, 10 μM ATP, 30 min, room temperature; standard error (SE). As for the experimental part: as §1, §2, §3

Series [5] concerns PI3Kα signaling pathway. Briefly: Cell-based assay: P-Akt in insulin-stimulated NIH3T3 cells (Western blot). As to conditions: Mus musculus, 1.5 h pre-treatment, 5 min stimulation with 1 μM insulin, SE ± 0.6, read-out: IC50, residual P-Akt. As for the experimental part: Subsequently, compound 9b was analyzed on cell-based assay in order to evaluate its ability to inhibit the PI3Kα signaling pathway on cells. It is well established that insulin signaling is mostly regulated by PI3Kα [29]. The activated insulin receptor triggers PI3Kα activity mainly by binding and phosphorylating adaptor proteins of the IRS (insulin receptor substrate) family. Once activated, PI3Kα produces the PtdIns(3,4,5)P3 lipid product, which in turn mediates the activation of downstream effectors such as Akt. Thus, phosphorylation of Akt results as a key event of the PI3Kα activation. […] A dose response curve and an IC50 value were determined.
NIH3T3 cells were cultured in […] (DMEM) (GIBCO-Thermo Fisher Scientific Inc., Waltham, MA, USA) supplemented with 10% Fetal Bovine Serum (FBS) (GIBCO-Thermo Fisher Scientific Inc.), 100 units/mL penicillin (GIBCO-Thermo Fisher Scientific Inc.), and 100 μg/mL streptomycin (GIBCO- Thermo Fisher Scientific Inc.). […] The P-Akt production is detected by Western blot analysis and quantified with ChemiDoc™ XRS system. From the absolute values, a percentage of residual P-Akt is calculated for each inhibitor concentration by using the control vehicle as 100%. […]
For orientation: Immunoblotting shows a protein as a band on a membrane.

9 compounds from PMC6332036, “The Guareschi Pyridine Scaffold as a Valuable Platform for the Identification of Selective PI3K Inhibitors” (Molecules, 2015) can be followed below.

pIC50: −log10 of the molar value.

T4 sequence (P48736 whole entry): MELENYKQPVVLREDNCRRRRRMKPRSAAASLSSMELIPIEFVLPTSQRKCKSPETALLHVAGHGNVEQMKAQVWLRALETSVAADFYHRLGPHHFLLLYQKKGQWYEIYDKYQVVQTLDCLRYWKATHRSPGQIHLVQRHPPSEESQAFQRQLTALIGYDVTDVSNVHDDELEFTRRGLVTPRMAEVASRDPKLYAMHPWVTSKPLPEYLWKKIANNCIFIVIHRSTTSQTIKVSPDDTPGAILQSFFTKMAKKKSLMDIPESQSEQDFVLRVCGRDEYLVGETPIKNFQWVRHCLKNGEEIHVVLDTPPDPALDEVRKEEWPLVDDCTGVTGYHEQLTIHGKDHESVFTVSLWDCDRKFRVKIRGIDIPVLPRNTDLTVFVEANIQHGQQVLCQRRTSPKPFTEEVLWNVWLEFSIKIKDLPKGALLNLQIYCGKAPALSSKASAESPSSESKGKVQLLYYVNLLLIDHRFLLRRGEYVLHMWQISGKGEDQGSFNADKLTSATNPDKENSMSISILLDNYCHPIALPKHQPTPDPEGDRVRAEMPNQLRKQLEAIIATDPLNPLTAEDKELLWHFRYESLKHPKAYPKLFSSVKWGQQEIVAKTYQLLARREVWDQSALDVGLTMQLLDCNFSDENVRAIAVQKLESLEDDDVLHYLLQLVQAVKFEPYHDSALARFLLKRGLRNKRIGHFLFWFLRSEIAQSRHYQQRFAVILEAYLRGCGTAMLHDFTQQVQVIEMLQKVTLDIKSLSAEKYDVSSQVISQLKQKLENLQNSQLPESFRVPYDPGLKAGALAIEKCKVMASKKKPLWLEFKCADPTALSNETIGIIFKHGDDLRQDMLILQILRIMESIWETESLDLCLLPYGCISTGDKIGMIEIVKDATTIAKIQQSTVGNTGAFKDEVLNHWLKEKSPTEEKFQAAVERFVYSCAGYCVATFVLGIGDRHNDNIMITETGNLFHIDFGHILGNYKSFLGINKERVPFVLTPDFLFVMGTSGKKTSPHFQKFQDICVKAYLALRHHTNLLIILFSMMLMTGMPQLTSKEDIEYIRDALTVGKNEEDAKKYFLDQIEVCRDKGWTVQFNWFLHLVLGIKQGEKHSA
T1 sequence (P42338 whole entry): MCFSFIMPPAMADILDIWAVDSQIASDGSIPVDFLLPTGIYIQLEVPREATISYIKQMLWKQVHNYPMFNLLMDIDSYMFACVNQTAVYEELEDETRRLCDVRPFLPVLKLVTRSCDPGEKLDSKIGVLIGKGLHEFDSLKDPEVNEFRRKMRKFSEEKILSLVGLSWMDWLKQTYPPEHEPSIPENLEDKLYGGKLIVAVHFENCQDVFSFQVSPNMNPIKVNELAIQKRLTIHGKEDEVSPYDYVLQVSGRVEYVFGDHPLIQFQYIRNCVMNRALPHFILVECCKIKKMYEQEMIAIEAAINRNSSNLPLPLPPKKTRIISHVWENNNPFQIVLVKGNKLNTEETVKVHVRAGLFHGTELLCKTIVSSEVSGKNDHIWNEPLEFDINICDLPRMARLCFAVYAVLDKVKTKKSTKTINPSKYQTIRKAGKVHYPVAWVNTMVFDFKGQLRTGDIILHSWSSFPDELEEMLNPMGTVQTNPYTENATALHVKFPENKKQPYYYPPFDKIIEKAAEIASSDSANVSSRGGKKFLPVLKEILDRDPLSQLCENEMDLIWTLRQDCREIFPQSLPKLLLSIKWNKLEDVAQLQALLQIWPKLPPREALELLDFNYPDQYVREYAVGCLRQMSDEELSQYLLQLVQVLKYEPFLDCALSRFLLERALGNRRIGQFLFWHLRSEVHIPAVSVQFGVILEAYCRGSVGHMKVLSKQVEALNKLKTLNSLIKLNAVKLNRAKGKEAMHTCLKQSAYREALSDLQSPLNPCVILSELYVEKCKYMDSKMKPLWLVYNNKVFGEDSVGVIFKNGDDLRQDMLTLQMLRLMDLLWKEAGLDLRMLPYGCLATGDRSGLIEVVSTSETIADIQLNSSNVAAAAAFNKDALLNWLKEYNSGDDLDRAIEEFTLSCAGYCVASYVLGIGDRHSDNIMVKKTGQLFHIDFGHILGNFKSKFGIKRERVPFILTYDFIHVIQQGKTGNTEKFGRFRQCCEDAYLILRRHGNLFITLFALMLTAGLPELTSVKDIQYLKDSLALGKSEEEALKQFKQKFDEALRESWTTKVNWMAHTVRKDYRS
T1 sequence (P27986 whole entry partner): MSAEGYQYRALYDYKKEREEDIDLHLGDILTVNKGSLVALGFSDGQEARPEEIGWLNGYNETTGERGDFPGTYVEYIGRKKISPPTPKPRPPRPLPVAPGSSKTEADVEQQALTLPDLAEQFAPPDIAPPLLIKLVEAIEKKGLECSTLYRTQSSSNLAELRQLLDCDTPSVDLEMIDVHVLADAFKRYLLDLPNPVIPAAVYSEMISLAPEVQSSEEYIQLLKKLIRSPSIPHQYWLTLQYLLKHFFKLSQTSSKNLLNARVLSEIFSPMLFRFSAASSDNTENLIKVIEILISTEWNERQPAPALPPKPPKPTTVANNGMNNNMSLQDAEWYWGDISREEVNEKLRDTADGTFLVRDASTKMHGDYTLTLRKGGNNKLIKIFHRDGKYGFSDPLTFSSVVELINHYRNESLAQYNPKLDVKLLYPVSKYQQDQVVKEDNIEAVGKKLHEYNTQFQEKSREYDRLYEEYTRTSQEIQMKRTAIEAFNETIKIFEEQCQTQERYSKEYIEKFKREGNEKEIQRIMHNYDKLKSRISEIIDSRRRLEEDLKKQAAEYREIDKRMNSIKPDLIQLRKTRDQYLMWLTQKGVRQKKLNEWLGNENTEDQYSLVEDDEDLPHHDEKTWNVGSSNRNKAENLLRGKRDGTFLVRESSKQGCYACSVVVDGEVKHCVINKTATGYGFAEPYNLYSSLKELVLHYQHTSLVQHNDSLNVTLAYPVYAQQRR
T3 sequence (O00329 whole entry): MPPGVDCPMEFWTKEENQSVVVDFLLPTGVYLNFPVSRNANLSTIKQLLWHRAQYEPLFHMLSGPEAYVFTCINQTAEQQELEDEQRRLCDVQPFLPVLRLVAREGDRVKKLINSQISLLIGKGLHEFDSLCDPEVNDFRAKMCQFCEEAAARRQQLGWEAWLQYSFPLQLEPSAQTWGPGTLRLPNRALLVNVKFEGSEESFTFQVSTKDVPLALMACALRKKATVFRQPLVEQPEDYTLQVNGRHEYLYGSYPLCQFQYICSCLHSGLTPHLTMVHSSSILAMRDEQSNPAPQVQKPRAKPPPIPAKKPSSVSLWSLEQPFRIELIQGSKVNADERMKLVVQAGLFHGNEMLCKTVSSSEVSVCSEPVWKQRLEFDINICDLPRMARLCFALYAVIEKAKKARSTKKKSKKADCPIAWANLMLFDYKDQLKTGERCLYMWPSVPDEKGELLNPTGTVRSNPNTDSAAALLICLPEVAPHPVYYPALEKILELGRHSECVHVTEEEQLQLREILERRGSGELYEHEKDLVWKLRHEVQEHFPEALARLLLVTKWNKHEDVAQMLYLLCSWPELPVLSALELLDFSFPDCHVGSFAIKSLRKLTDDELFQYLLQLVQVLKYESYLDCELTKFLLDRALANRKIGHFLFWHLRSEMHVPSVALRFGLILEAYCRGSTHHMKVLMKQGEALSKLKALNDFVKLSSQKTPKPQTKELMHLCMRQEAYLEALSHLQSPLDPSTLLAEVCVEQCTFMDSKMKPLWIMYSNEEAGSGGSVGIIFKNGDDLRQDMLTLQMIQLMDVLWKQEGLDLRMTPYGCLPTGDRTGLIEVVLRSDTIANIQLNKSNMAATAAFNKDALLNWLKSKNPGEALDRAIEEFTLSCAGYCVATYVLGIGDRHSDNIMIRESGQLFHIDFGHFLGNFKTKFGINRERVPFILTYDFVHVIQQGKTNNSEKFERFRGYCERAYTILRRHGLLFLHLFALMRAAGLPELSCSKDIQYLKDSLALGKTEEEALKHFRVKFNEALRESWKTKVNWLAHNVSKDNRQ
T3 sequence (P27986 whole entry partner): as the sequence (P27986 whole entry partner) above
T2 sequence (P42336 whole entry): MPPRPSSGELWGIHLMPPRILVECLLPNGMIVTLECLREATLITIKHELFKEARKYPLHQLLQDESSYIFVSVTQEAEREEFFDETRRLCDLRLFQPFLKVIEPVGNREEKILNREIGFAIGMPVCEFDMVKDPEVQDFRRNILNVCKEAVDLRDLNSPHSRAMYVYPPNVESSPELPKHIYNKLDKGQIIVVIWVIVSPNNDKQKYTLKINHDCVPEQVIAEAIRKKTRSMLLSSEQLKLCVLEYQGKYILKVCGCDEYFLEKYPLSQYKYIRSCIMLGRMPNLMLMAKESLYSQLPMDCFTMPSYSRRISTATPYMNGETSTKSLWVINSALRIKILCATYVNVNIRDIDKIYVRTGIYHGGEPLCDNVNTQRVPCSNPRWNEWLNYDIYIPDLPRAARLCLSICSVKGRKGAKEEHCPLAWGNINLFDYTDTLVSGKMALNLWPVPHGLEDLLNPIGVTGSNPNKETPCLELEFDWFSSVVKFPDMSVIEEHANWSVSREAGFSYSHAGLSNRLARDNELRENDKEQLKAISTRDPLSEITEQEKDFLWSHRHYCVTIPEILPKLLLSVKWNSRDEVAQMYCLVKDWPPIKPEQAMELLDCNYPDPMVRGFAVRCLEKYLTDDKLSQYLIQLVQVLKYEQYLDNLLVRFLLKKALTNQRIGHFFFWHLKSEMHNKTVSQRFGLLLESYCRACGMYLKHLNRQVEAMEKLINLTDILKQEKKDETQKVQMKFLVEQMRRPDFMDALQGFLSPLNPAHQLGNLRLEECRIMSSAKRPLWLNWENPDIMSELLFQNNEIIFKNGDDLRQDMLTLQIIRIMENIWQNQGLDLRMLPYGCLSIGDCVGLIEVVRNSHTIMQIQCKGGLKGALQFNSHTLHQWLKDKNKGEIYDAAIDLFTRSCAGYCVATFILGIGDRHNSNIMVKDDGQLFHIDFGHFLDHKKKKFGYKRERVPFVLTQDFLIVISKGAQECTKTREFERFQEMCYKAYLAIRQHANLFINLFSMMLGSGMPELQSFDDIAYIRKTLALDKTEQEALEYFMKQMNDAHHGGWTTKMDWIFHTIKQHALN
T2 sequence (P27986 whole entry partner): as the sequence (P27986 whole entry partner) above

In the case of `COc1cccc(-c2cc(N3CCOCC3)nc(-c3cccc(O)c3)c2C#N)c1` [Compound 9d], the melting point (as a rule, the temperature of the solid-liquid transition) is 208 to 209 °C (dec.). In addition, the pIC50 (commonly the negative decadic logarithm of the IC50, by convention in mol/L) in series [1] is 5.63. Also, in series [2], the negative-log IC50 (pIC50) is 6.20. In series [3], the pIC50 is 5.96. Besides, the negative-log IC50 (pIC50) in series [4] was 5.79.
In turn, `COc1ccc(-c2cc(N3CCOCC3)nc(-c3cccc(O)c3)c2C#N)cc1` [Compound 9c] came in with a melting point of 216 to 217 °C. In series [1], the pIC50 was below 5.00. For the same compound, the pIC50 in series [2] is 5.75. For the same compound, the negative logarithm of the IC50 (pIC50) in series [3] was 5.86. For the same compound, the pIC50 in series [4] was 5.66.
With `N#Cc1c(-c2ccncc2)cc(N2CCOCC2)nc1-c1cccc(O)c1` [Compound 9g], the melting point is 290 to 292 °C (dec.). Moreover, the pIC50 in series [1] is below 5.00. Moreover, the negative logarithm of the IC50 (pIC50) in series [2] was 5.91. In addition, the pIC50 in series [3] is 6.07. Further, the pIC50 in series [4] was 5.81.
In the case of `COc1ccc(-c2cc(N3CCOCC3)nc(-c3cccc(O)c3)c2C#N)cc1OC` [Compound 9e], the melting point is 142 to 144 °C. In addition, the pIC50 in series [1] was 5.19. For the same compound, the negative logarithm of the IC50 (pIC50) in series [2] was 6.08. Besides, the pIC50 in series [3] is 6.05. For the same compound, in series [4], the pIC50 was 5.54.
`N#Cc1c(-c2ccccc2)cc(N2CCOCC2)nc1-c1cccc(O)c1` [Compound 9a]: the melting point was 221 to 223 °C (dec.). Further, in series [1], the pIC50 is 5.70. In addition, in series [2], the pIC50 is 6.89. Besides, in series [3], the pIC50 was 5.91. The pIC50 in series [4] is below 5.00.
Take `Cc1ccc(-c2cc(N3CCOCC3)nc(-c3cccc(O)c3)c2C#N)cc1C` [Compound 9f]: the melting point was 117 to 120 °C (dec.). In addition, in series [1], the pIC50 is below 5.00. For the same compound, in series [2], the pIC50 is below 5.00. Besides, the pIC50 in series [3] was 5.88. Also, the negative logarithm of the IC50 (pIC50) in series [4] is 5.35.
Compound `Cc1cc(N2CCOCC2)nc(-c2cccc(O)c2)c1C#N` [Compound 10, 2-(3-Hydroxyphenyl)-6-morpholino-4-methylnicotinonitrile] returned a melting point of 195 to 197 °C. Besides, in series [1], the pIC50 was 5.81. Besides, in series [2], the negative-log IC50 (pIC50) is 5.93. Further, in series [3], the negative logarithm of the IC50 (pIC50) was 6.38. Further, the pIC50 in series [4] was 5.98.
`N#Cc1c(-c2ccc(Oc3ccccc3)cc2)cc(N2CCOCC2)nc1-c1cccc(O)c1` [Compound 9b] returned a melting point of 240 to 242 °C. In series [1], the pIC50 is below 5.00. In addition, the negative-log IC50 (pIC50) in series [5] was 5.55. Moreover, the negative logarithm of the IC50 (pIC50) in series [2] is 6.20. For the same compound, the pIC50 in series [3] was below 5.00. The pIC50 in series [4] was below 5.00.
As for `N#Cc1c(-c2cccnc2)cc(N2CCOCC2)nc1-c1cccc(O)c1` [Compound 9h], the melting point is 239 to 242 °C (dec.). Also, the pIC50 in series [1] is below 5.00. Also, in series [2], the negative logarithm of the IC50 (pIC50) was 6.01. The negative-log IC50 (pIC50) in series [3] is 6.15. In series [4], the negative logarithm of the IC50 (pIC50) is 5.61.
